One data set addresses Cyclophilin A (CypA) (Homo sapiens, UniProt P62937). Put plainly: Fluorescence polarization cyclophilin A binding assay. In general terms: Fluorescence polarisation rises when a labelled molecule tumbles more slowly, as on binding a larger partner.
The test system of data set [1] is mitochondrial permeability transition pore (mPTP). Kind of data set: Calcium retention capacity (CRC) assay in isolated liver mitochondria. Format: biochemical, rat. The note with it: Table S4 / Fig. S2; rat liver mitochondria; 500 nM; (Treated-NonTreated)/NonTreated)*100.
The nature of data set [2]: Pharmacokinetic study, plasma and brain levels by LC-MS/MS.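 As to all read-outs here: ABH mice, four per group, dosed intraperitoneally, plasma and brain taken at set times after euthanasia, drug levels quantified by LC-MS/MS.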 As to conditions: mice; for level at 1 h / level at 4 h: ABH, mouse, ip.
Procedure: (§1) The remaining five compounds were evaluated for plasma and brain levels in a pharmacokinetic experiment in mice.
Pharmacokinetic analysis.
(Cyprotex UK) using LCMSMS.
Another data set deals with CypD (Homo sapiens, UniProt P30405). Kind of data set: Fluorescence polarization cyclophilin D binding assay.
Chain of CypD (P30405 30-207): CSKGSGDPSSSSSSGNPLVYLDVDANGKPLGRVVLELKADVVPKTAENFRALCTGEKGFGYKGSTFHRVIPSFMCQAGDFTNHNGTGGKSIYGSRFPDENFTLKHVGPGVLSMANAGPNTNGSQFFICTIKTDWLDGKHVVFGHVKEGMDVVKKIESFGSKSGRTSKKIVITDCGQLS
In the next data set the target is hERG (Homo sapiens, UniProt Q12809). Kind of data set: hERG inhibition. Format: biochemical. As to conditions: for inhibition at 25 µM: hERG (% inhibition at 25 μM). For orientation: Block of hERG is tested as a sign of cardiac risk.
Chain of hERG (Q12809 whole entry): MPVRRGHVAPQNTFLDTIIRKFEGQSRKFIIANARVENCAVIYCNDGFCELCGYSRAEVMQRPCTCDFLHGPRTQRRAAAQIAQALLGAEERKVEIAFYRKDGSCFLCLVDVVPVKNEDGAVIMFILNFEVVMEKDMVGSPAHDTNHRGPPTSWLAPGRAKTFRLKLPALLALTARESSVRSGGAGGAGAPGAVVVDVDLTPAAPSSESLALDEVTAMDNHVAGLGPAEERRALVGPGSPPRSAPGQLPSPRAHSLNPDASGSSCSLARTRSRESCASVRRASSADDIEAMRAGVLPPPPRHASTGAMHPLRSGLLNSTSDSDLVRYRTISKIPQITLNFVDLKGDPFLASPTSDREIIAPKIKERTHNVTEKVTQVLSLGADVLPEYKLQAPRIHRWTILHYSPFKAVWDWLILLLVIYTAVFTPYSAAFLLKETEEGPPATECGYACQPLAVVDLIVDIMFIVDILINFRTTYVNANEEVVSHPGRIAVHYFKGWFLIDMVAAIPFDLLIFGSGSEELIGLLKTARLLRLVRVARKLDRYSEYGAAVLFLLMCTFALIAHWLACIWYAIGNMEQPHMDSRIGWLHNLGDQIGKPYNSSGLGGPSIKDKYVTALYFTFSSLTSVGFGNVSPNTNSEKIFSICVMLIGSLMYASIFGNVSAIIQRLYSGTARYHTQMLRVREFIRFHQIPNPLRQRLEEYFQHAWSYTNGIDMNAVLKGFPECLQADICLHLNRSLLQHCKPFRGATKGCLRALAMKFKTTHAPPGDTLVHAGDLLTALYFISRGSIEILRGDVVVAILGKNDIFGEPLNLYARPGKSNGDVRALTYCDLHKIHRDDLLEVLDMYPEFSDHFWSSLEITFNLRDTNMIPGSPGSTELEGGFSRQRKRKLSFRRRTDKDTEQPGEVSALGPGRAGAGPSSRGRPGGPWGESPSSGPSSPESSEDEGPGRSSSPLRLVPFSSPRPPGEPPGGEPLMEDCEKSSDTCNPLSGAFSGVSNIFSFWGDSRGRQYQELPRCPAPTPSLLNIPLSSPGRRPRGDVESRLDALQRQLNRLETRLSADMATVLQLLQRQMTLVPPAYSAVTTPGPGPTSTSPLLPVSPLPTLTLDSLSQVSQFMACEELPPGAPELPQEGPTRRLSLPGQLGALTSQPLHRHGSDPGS
The conditions of data set [3]: mouse, in vivo, ip, 10 mg/kg.
Procedure: as §1
Pharmacokinetic analysis.
(Cyprotex UK) using LCMSMS.
A short description of a further data set: in vivo. The note with it: ABH, mouse, ip, 10 mg/kg; for level at 24 h: Brain concentrations at 24 hours.
For data set [4] the following is noted: mouse, in vivo, ip, 10 mg/kg. The source holds these as a separate data set.
Procedure: as §1
Pharmacokinetic analysis.
(Cyprotex UK) using LCMSMS.
Data set [5] can be described thus: Hepatocyte clearance (human). The format is in vitro ADME. As to conditions: human hepatocytes.
The nature of data set [6]: Plasma protein binding (fraction unbound). The format is in vitro ADME. As to conditions: read-out: Plasma protein (fu).
Data set [7] in a line: Hepatocyte clearance (mouse). Format: in vitro ADME. The note with it: mouse hepatocytes.
[8] abbreviates: Table S3, 4-aza substituted quinolinium salts, fluorescence polarization, read-out: Ki (nM) CypA.
The mark [9] stands for this setting: Table S7, focused SAR set, read-out: CypD Ki.
[10] abbreviates: Table S7, focused SAR set, read-out: CypA Ki.
Where [11] appears, read: Table S2, 4-oxa substituted and O-linked quinolinium salts, fluorescence polarization, read-out: Ki (nM), Cyclophilin A binding affinity.

Where two headings read alike, the source gives them in different places.

A word on the Ki: it is a measure of affinity in units of concentration, obtained from inhibition or displacement. In general, IC50 refers to the point on the concentration scale where inhibition reaches its midpoint. By AUC(0-inf) is commonly meant the area under the concentration-time curve extrapolated to infinity. Read a high AUC(0-inf) as more exposure. Broadly, the AUC(0-t) is exposure summed from dosing to a finite time, without extrapolation to infinity. Read a low AUC(0-t) as low exposure. By half-life is commonly meant the time in which the quantity being followed falls by half. A high value points to slow decline. In general, hepatocyte CLint refers to the capacity of the preparation to metabolise the compound, expressed as a volume cleared per time. What is called inhibition is how much of the control response was suppressed. High values mean strong suppression, low ones little suppression.

Chain of Cyclophilin A (CypA) (P62937 whole entry): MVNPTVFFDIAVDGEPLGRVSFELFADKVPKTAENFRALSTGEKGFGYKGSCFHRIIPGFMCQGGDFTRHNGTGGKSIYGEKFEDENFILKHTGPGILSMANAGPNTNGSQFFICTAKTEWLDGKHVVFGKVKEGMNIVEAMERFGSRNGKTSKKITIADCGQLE
Procedure for Cyclophilin A (CypA): (§2) This was determined using a fluorescence polarization assay ([12]).
Fluorescence Polarization assay.
(§3) Briefly, titration of a single probe concentration
measure binding affinities.
FP -probe. Enzyme, inhibitor and
(ph7.4)) supplemented with 1 mM PMSF.
Procedure for CypD: as §2
Fluorescence Polarization assay.
as §3
measure binding affinities.
Procedure for in vivo: as §1
Pharmacokinetic analysis.
(Cyprotex UK) using LCMSMS.

Turning to `CC[C@@H]1NC(=O)[C@H]([C@H](O)[C@H](C)CC=CCCC[n+]2ccc(N(C)Cc3ccccc3)c3ccccc32)N(C)C(=O)[C@H](C(C)C)N(C)C(=O)[C@H](CC(C)C)N(C)C(=O)[C@H](CC(C)C)N(C)C(=O)[C@@H](C)NC(=O)[C@H](C)NC(=O)[C@H](CC(C)C)N(C)C(=O)[C@H](C(C)C)NC(=O)[C@H](CC(C)C)N(C)C(=O)CN(C)C1=O` [JP1-028], the Ki at Cyclophilin A (CypA) (setting [8]) was 35 ± 3 nM.

As for `CC[C@@H]1NC(=O)[C@H]([C@H](O)[C@H](C)CC=CCCC[n+]2ccc(NCCc3ccccc3)c3ccccc32)N(C)C(=O)[C@H](C(C)C)N(C)C(=O)[C@H](CC(C)C)N(C)C(=O)[C@H](CC(C)C)N(C)C(=O)[C@@H](C)NC(=O)[C@H](C)NC(=O)[C@H](CC(C)C)N(C)C(=O)[C@H](C(C)C)NC(=O)[C@H](CC(C)C)N(C)C(=O)CN(C)C1=O` [JP1-037H], the Ki on Cyclophilin A (CypA) (setting [8]) is 17 ± 5 nM. Moreover, in [1], the CRC inhibition % turned out to be 26.53%.

As to `CC[C@@H]1NC(=O)[C@H]([C@H](O)[C@H](C)CC=CCCC[n+]2ccc(N(C)CCc3ccccc3)c3ccccc32)N(C)C(=O)[C@H](C(C)C)N(C)C(=O)[C@H](CC(C)C)N(C)C(=O)[C@H](CC(C)C)N(C)C(=O)[C@@H](C)NC(=O)[C@H](C)NC(=O)[C@H](CC(C)C)N(C)C(=O)[C@H](C(C)C)NC(=O)[C@H](CC(C)C)N(C)C(=O)CN(C)C1=O` [JP1-037], on Cyclophilin A (CypA) (setting [8]), the inhibitory constant (Ki) came out at 4.4 ± 2 nM. The CRC inhibition % in [1] came out at 20.61%.

Consider `CC[C@@H]1NC(=O)[C@H]([C@H](O)[C@H](C)C/C=C/CCC[n+]2ccc(NCCOc3ccccc3)c3ccccc32)N(C)C(=O)[C@H](C(C)C)N(C)C(=O)[C@H](CC(C)C)N(C)C(=O)[C@H](CC(C)C)N(C)C(=O)[C@@H](C)NC(=O)[C@H](C)NC(=O)[C@H](CC(C)C)N(C)C(=O)[C@H](C(C)C)NC(=O)[C@H](CC(C)C)N(C)C(=O)CN(C)C1=O` [JP1-068], for which the Ki at Cyclophilin A (CypA) (setting [8]) amounted to 10 nM; at CypD (Table S3, fluorescence polarization, biotinylated-CsA probe, read-out: Ki (nM) CypD), 38.1 nM. Moreover, the level at 1 h is 110 ng/mL in data set [2] (brain, Brain ng/mL, 1 h) and 6410 ng/mL in [2] (plasma, Plasma (ng/mL), 1 h). Further, the level at 4 h came to 76 ng/mL in [2] (brain, Brain ng/mL) and 6250 ng/mL in [2] (plasma, Plasma (ng/mL)). Further, the “Brain” value in data set [2] (1 h) is given as 110 ng/mL. Also, the half-inhibitory concentration (IC50) against hERG fell in the range of 1000 to 2000 nM.

Consider `CC[C@@H]1NC(=O)[C@H]([C@H](O)[C@H](C)CC=CCCC[n+]2ccc(N3CCCC3)c3ccc(C(F)(F)F)cc32)N(C)C(=O)[C@H](C(C)C)N(C)C(=O)[C@H](CC(C)C)N(C)C(=O)[C@H](CC(C)C)N(C)C(=O)[C@@H](C)NC(=O)[C@H](C)NC(=O)[C@H](CC(C)C)N(C)C(=O)[C@H](C(C)C)NC(=O)[C@H](CC(C)C)N(C)C(=O)CN(C)C1=O` [JP1-140], for which the Ki on CypD (setting [9]) is 76 ± 8 nM.

As for `CC[C@@H]1NC(=O)[C@H]([C@H](O)[C@H](C)CC=CCCC[n+]2ccc(N3CCCC3)c3ccccc32)N(C)C(=O)[C@H](C(C)C)N(C)C(=O)[C@H](CC(C)C)N(C)C(=O)[C@H](CC(C)C)N(C)C(=O)[C@@H](C)NC(=O)[C@H](C)NC(=O)[C@H](CC(C)C)N(C)C(=O)[C@H](C(C)C)NC(=O)[C@H](CC(C)C)N(C)C(=O)CN(C)C1=O` [JP1-159], the Ki at Cyclophilin A (CypA) (setting [10]) was 104 nM.

With `CC[C@@H]1NC(=O)[C@H]([C@H](O)[C@H](C)C/C=C/CCC[n+]2ccc(N3CCCCC3)c3ccccc32)N(C)C(=O)[C@H](C(C)C)N(C)C(=O)[C@H](CC(C)C)N(C)C(=O)[C@H](CC(C)C)N(C)C(=O)[C@@H](C)NC(=O)[C@H](C)NC(=O)[C@H](CC(C)C)N(C)C(=O)[C@H](C(C)C)NC(=O)[C@H](CC(C)C)N(C)C(=O)CN(C)C1=O` [JP1-166], in [3], the Cl_obs was 1.67 × 10^−04 (mg/kg)/(ng/ml).hour. Moreover, in “in vivo”, the level at time molar at 24 h is 86 nM and the level at 24 h was 124 ng/mL. Moreover, in [4], the total exposure AUC(0-inf) amounted to 59900 ng·h/mL, the exposure AUC(0-t) came to 55000 ng·h/mL and the half-life was 6.75 h. For the same molecule, in [5], the hepatocyte CLint stood at 8.01 µL/min/1e6 cells. In addition, the Ki at Cyclophilin A (CypA) (setting [10]) was found to be 31 ± 3 nM. The fraction unbound in data set [6] turned out to be 0.43. For the same molecule, the hepatocyte CLint in data set [7] worked out at 9.47 µL/min/1e6 cells. Also, on hERG, 25 µM produced 31.4% inhibition.

With `CC[C@@H]1NC(=O)[C@H]([C@H](O)[C@H](C)C/C=C/CCC[n+]2ccc(N(C)C)c3ccccc32)N(C)C(=O)[C@H](C(C)C)N(C)C(=O)[C@H](CC(C)C)N(C)C(=O)[C@H](CC(C)C)N(C)C(=O)[C@@H](C)NC(=O)[C@H](C)NC(=O)[C@H](CC(C)C)N(C)C(=O)[C@H](C(C)C)NC(=O)[C@H](CC(C)C)N(C)C(=O)CN(C)C1=O` [JP1-180], the Cl_obs in data set [3] is reported as 1.61 × 10^−04 (mg/kg)/(ng/ml).hour. Besides, in “in vivo”, the level at time molar at 24 h turned out to be 142 nM and the level at 24 h is 196 ng/mL. Moreover, in data set [4], the AUC(0-inf) is 62100 ng·h/mL, the exposure AUC(0-t) came out at 59300 ng·h/mL and the half-life is 5.06 h. In addition, in data set [5], the intrinsic clearance (hepatocyte CLint) was found to be 4.65 µL/min/1e6 cells. Further, the fraction unbound in [6] was determined as 0.17. Also, the intrinsic clearance (hepatocyte CLint) in data set [7] came out at 4.07 µL/min/1e6 cells. The inhibition constant Ki at CypD (setting [9]) was 77 ± 46 nM. Also, the inhibition at 25 µM against hERG was found to be 9.75%.

In data set [2] (plasma, Plasma (ng/mL)), `CC[C@@H]1NC(=O)[C@H]([C@H](O)[C@H](C)C/C=C/CCC[n+]2cccc3ccccc32)N(C)C(=O)[C@H](C(C)C)N(C)C(=O)[C@H](CC(C)C)N(C)C(=O)[C@H](CC(C)C)N(C)C(=O)[C@@H](C)NC(=O)[C@H](C)NC(=O)[C@H](CC(C)C)N(C)C(=O)[C@H](C(C)C)NC(=O)[C@H](CC(C)C)N(C)C(=O)CN(C)C1=O` [JW47, reference compound] returned a level at 4 h of 4900 ng/mL.

As for `CC[C@@H]1NC(=O)[C@H]([C@H](O)[C@H](C)CC=CCCC[n+]2ccc(OCCc3ccccc3)c3ccccc32)N(C)C(=O)[C@H](C(C)C)N(C)C(=O)[C@H](CC(C)C)N(C)C(=O)[C@H](CC(C)C)N(C)C(=O)[C@@H](C)NC(=O)[C@H](C)NC(=O)[C@H](CC(C)C)N(C)C(=O)[C@H](C(C)C)NC(=O)[C@H](CC(C)C)N(C)C(=O)CN(C)C1=O` [TWH30], the inhibitory constant (Ki) on Cyclophilin A (CypA) (setting [11]) was found to be 267 ± 16 nM. In [1], the CRC inhibition % is on record as 27.89%.

For the molecule `CC[C@@H]1NC(=O)[C@H]([C@H](O)[C@H](C)CC=CCCCOc2cc[n+](CCCc3ccccc3)c3ccccc23)N(C)C(=O)[C@H](C(C)C)N(C)C(=O)[C@H](CC(C)C)N(C)C(=O)[C@H](CC(C)C)N(C)C(=O)[C@@H](C)NC(=O)[C@H](C)NC(=O)[C@H](CC(C)C)N(C)C(=O)[C@H](C(C)C)NC(=O)[C@H](CC(C)C)N(C)C(=O)CN(C)C1=O` [TWH43], the Ki at Cyclophilin A (CypA) (setting [11]) is 218 ± 57 nM. Besides, in data set [1], the CRC inhibition % is recorded as 16.28%.

Turning to `CC[C@@H]1NC(=O)[C@H]([C@H](O)[C@H](C)CC=CCCC[n+]2ccc(OCCCc3ccc(OC)cc3)c3ccccc32)N(C)C(=O)[C@H](C(C)C)N(C)C(=O)[C@H](CC(C)C)N(C)C(=O)[C@H](CC(C)C)N(C)C(=O)[C@@H](C)NC(=O)[C@H](C)NC(=O)[C@H](CC(C)C)N(C)C(=O)[C@H](C(C)C)NC(=O)[C@H](CC(C)C)N(C)C(=O)CN(C)C1=O` [TWH44], the Ki on Cyclophilin A (CypA) (setting [11]) turned out to be 158 ± 17 nM. For the same molecule, the CRC inhibition % in data set [1] is on record as 16.95%.

`CC[C@@H]1NC(=O)[C@H]([C@H](O)[C@H](C)C/C=C/CCCOc2cc[n+](CCc3ccccc3)c3ccccc23)N(C)C(=O)[C@H](C(C)C)N(C)C(=O)[C@H](CC(C)C)N(C)C(=O)[C@H](CC(C)C)N(C)C(=O)[C@@H](C)NC(=O)[C@H](C)NC(=O)[C@H](CC(C)C)N(C)C(=O)[C@H](C(C)C)NC(=O)[C@H](CC(C)C)N(C)C(=O)CN(C)C1=O` [TWH46]: the Ki on Cyclophilin A (CypA) (setting [11]) worked out at 265 ± 111 nM.

`CC[C@@H]1NC(=O)[C@H]([C@H](O)[C@H](C)CC=CCCC[n+]2ccc(OCc3ccccc3)c3ccccc32)N(C)C(=O)[C@H](C(C)C)N(C)C(=O)[C@H](CC(C)C)N(C)C(=O)[C@H](CC(C)C)N(C)C(=O)[C@@H](C)NC(=O)[C@H](C)NC(=O)[C@H](CC(C)C)N(C)C(=O)[C@H](C(C)C)NC(=O)[C@H](CC(C)C)N(C)C(=O)CN(C)C1=O` [TWH53]: on Cyclophilin A (CypA) (setting [11]), the inhibition constant Ki was 158 ± 43 nM. Further, in data set [1], the CRC inhibition % is listed as 18.46%.

Turning to `CC[C@@H]1NC(=O)[C@H]([C@H](O)[C@H](C)CC=CCCC[n+]2ccc(OCCOc3ccccc3)c3ccccc32)N(C)C(=O)[C@H](C(C)C)N(C)C(=O)[C@H](CC(C)C)N(C)C(=O)[C@H](CC(C)C)N(C)C(=O)[C@@H](C)NC(=O)[C@H](C)NC(=O)[C@H](CC(C)C)N(C)C(=O)[C@H](C(C)C)NC(=O)[C@H](CC(C)C)N(C)C(=O)CN(C)C1=O` [TWH68], the Ki at Cyclophilin A (CypA) (setting [11]) was determined as 467 ± 85 nM. In addition, in data set [1], the CRC inhibition % stood at 17.71%.

The values above are taken from paper PMC11235165, “Delocalized quinolinium-macrocyclic peptides, an atypical chemotype for CNS penetration” (Science Advances, 2024).
